Measurements as given in patent US7687507B2, “Pyrrolo[2,3-d]pyrimidine compounds” (Pfizer Inc., priority 1998, dated 2010).

Structure (SMILES) | melting point
C=CCN(c1ncnc2[nH]ccc12)C1CCCC1 [Example 6, Allyl-cyclopentyl-(7H-pyrrolo[2,3-d]pyrimidin-4-yl)-amine] | 173 to 175 °C
CCN(c1ncnc2[nH]ccc12)C1CCCCCCC1 [Example 15, Cyclooctyl-ethyl-(7H-pyrrolo[2,3-d]pyrimidin-4-yl)-amine] | 155 to 156 °C
Cc1cc2c(N(C)C3CCCCC3)ncnc2[nH]1 [Example 87, Cyclohexyl-methyl-(6-methyl-7H-pyrrolo[2,3-d]pyrimidin-4-yl)-amine] | 221 °C (dec.)
c1nc(SC2CCCCC2)c2cc[nH]c2n1 [Example 90, 4-Cyclohexylsulfanyl-7H-pyrrolo[2,3-d]pyrimidine] | 162 to 163 °C
Clc1c[nH]c2ncnc(N3CCCCC3)c12 [Example 91, 5-Chloro-4-piperidin-1-yl-7H-pyrrolo[2,3-d]pyrimidine] | 170 to 172 °C
CN(c1ncnc2[nH]cc(Cl)c12)C1CCCCCC1 [Example 93, (5-Chloro-7H-pyrrolo[2,3-d]pyrimidin-4-yl)-cycloheptyl-methyl-amine] | 152 to 153 °C
CN(c1ncnc2[nH]cc(Cl)c12)C1CCCCCCC1 [Example 94, (5-Chloro-7H-pyrrolo[2,3-d]pyrimidin-4-yl)-cyclooctyl-methyl-amine] | 151 to 153 °C
CN(c1ncnc2[nH]cc(-c3ccc(F)cc3)c12)C1CCCCC1 [Example 97, Cyclohexyl-[5-(4-fluoro-Phenyl)-7H-pyrrolo[2,3-d]pyrimidin-4-yl]-methyl-amine] | 220 °C
N#Cc1c[nH]c2ncnc(N3CCCCC3)c12 [Example 100, 4-Piperidin-1-yl-7H-pyrrolo[2,3-d]pyrimidine-5-carbonitrile] | 209 to 211 °C
C#Cc1c[nH]c2ncnc(N3CCCCC3)c12 [Example 101, 5-Ethynyl-4-piperidin-1-yl-7H-pyrrolo[2,3-d]pyrimidine] | 179 to 181 °C

More lines, now with the values ahead:

melting point | Structure (SMILES)
170 to 172 °C | CCN(Cc1ccccc1)c1ncnc2[nH]ccc12 [Example 2, Benzyl-ethyl-(7H-pyrrolo[2,3-d]pyrimidin-4-yl)-amine]
168 to 169 °C | CCN(c1ncnc2[nH]ccc12)C1CCCCCC1 [Example 14, Cycloheptyl-ethyl-(7H-pyrrolo[2,3-d]pyrimidin-4-yl)-amine]
146 to 148 °C | CCC(C)N(C)c1ncnc2[nH]ccc12 (centres unmarked) [Example 26, sec-Butyl-methyl-(7H-pyrrolo[2,3-d]pyrimidin-4-yl)-amine]
200 °C | CN(c1ncnc2[nH]cc(-c3ccccc3)c12)C1CCCCC1 [Example 96, Cyclohexyl-methyl-(5-phenyl-7H-pyrrolo[2,3-d]pyrimidin-4-yl)amine]
